# Experimental data as given in patent US20150064289A1, “Raw Extract of a Sechium Edule Hybrid, Method for Extracting Same and Use Thereof for Formulations Having an Antineoplastic Effect” (priority 2012, published 2015).
# Tests used:
# normal bone marrow cells = test: Proliferation of normal bone marrow cells, crystal violet technique; type: cell-based; conditions: normal mouse bone marrow cells; 5 µg/mL of citarabine; 5 days
# Method: To determine the effect of the extract of Sechium edule hybrid named MH-387-07-GISeM” on tumor cells, HeLa cell lines, which are derived from adenocarcinoma of […] cervical epithelial tissue; cell line L929 derived from male mouse's fibrosarcoma of areolar and adipose subcutaneous connective […] tissue, WEHI-3 y K562 are lines derived from leukemia (liquid tumors) which are maintained in IMDM culture medium (Iscove's Modified Dulbecco's Medium). Tumor cells were cultured for 72 hours in 200 μL of culture medium and serum containing 0.0, 0.15, 0.3, 0.6, 1.2, 2.5 and 5 μg/mL of extract, and were evaluated by the crystal violet technique (FIG. 1). Cells were maintained in culture for 5 days after being stimulated with diverse doses of extract or Ara-C as a control (5 μM), and were evaluated by the crystal violet technique, FIG. 1, where a dose-response curve of the effect of H-387-07-GISeM extract on cell proliferation of lines EHI-3, HeLa, L929, and bone marrow cells was plotted. Values are the average of three tests with tree replicates. Lines above the bars indicate±standard deviation. * Significant difference (p<0.05) compared to control. […] On the other hand, normal bone marrow cells of mouse treated with […] achieve a proliferation of 60% compared to the control, but with 5 µg/mL of citarabine (Ara-c) it only reaches a 35%.
# WEHI-3 [1] = test: Apoptotic bodies by morphology (Giemsa), WEHI-3; type: cell-based, mouse; conditions: 48 hrs, Ara-C 5 μg/mL, mean ± standard deviation
# Method: (§1) Once elapsed that time, cells were collected and placed on a slide; then were fixed with 1 mL of methanol and stained for 20 minutes with 10% Giemsa stain. Cells were observed under a microscope (Cari Zeiss, Primo Star, Germany) equipped with 100× objective lens. Morphological changes like decreased cell volume, chromatin condensation, loss of cell membrane regularity, were cytomorphological parameters evaluated in the formation of apoptotic bodies. 200 cells of each experiment were counted to obtain the percentage of normal and apoptotic cells.
# HeLa = test: Apoptotic bodies by morphology (Giemsa), HeLa; type: cell-based, human; conditions: 48 hrs, Ara-C 5 μg/mL, mean ± standard deviation
# Method: as §1
# L929 = test: Apoptotic bodies by morphology (Giemsa), L929; type: cell-based, mouse; conditions: 48 hrs, Ara-C 5 μg/mL, mean ± standard deviation
# Method: as §1
# K-562 = test: Cell viability by trypan blue exclusion, K-562; type: cell-based; conditions: K562
# Method: On the other hand, the cell viability was evaluated in order to determine that the extract only acts against tumor cells, for which purpose tumor cells were cultured for 72 hours under the above conditions in quantities of 200 μL of medium per well in 96-well, flat bottom, ultra-low adherence plates (Costar, Cambridge, Mass., USA) with various doses of extract.
# WEHI-3 [2] = test: Apoptosis induction through DNA fragmentation (agarose gel); conditions: WEHI-3 grown 48 hours, extract at IC50, FIG. 3
# Method: Apoptosis induction was evaluated through DNA fragmentation.
SMILES,proliferation compared to the control (normal bone marrow cells),% Apoptotic bodies (WEHI-3 [1]),% Apoptotic bodies (HeLa),% Apoptotic bodies (L929),effect on viability (K-562; Ara-c as worded in text),DNA fragmentation (WEHI-3 [2]),"viability at 1 µM (K-562; Homo sapiens, K-562, imatinib 1 μM (footnote), mean ± standard deviation)"
"Nc1ccn([C@@H]2O[C@H](CO)[C@@H](O)[C@@H]2O)c(=O)n1 [Ara-C, citarabine]",35%,61.5 ± 8.2%,21 ± 0%,6 ± 1.4%,totally does so,experiences DNA fragmentation,
Cc1ccc(NC(=O)c2ccc(CN3CCN(C)CC3)cc2)cc1Nc1nccc(-c2cccnc2)n1 [imatinib],,,,,,,4%
